Reference: patent publication US20070167353A1, “PRODRUG COMPOSITION” (priority 2003, published 2007)
Like-named read-outs stand apart in the source and are kept apart here.

What was measured:
[1] = test system: Cowpox; assay: organism not typed; type: cell-based; details: read-out: Cowpox Plaque Reduction (IC50)
[2] = test system: vaccinia virus; assay: microbe, parasite or virus in culture; type: cell-based; details: read-out: Vaccinia Plaque Reduction (IC50)
[3] = KB cell cytotoxicity; details: human, KB cells
[4] = Solubility testing in water; type: physicochemical; details: thermodynamic from solid; water added dropwise to 5 mg
Experimental: Water is added dropwise to 5 mg of each prodrug with intermittent stirring until the drug is fully dissolved. All of the Ara A prodrugs dissolved prior to the addition of 0.19 ml of water or at a concentration>26 mg/ml water. In contrast, unmodified Ara A is poorly soluble (<0.5 mg/ml) under these conditions.

[5] = Caco-2 monolayer transport and stability; type: in vitro ADME; details: human, Caco-2, pH 6
Experimental: (§1) The transepithelial transport of Ara A, 5′-O-L-valyl Ara A, 5′-O-L-isoleucyl Ara A is tested in Caco-2 monolayers grown in transwell filters following standard procedures as described in detail in Landowski, C. P. et al., Pharm Res, 2005. 22(9): p. 1510-8. In these experiments, transport studies are performed 21 days post-seeding. The assay is initiated by adding drug transport solution (0.2 mM drug in MES buffer, pH 6.0 containing 5 mM D-glucose, 5 mM MES, 1 mM CaCl2, 1 mM MgCl2, 150 mM NaCl, 3 mM KCl, 1 mM NaH2PO4) to the apical chamber of the Caco-2 insert. Two hundred microliter aliquots are withdrawn from the basolateral chamber at predetermined intervals and replaced with fresh HEPES pH 7.4 buffer. The epithelial integrity of representative cell monolayers is assessed by monitoring transepithelial resistance. In these assays, the stability of the drug in both chambers of the insert is also monitored. […] Importantly, the prodrugs are stable, showing minimal metabolism to Ara A and Ara-H over a 2-hour time frame.

[6] = test system: adenosine deaminase; assay: Stability in the presence of adenosine deaminase; type: biochemical; details: FIG. 3A
[7] = in vitro; details: human, Caco-2, pH 7.4
[8] = physchem; details: buffer, pH 7.4
[9] = molecular target: T1, HPEPT1 (Homo sapiens, UniProt P46059); assay: Inhibition of radiolabelled Gly-Sar uptake in DC5 cells overexpressing HPEPT1; type: cell-based; set-up: expressed in transfected cells; host or cells: HeLa cells overexpressing hPEPT1 (called 'HPEPT1 infected cells')
T1 sequence (P46059 1-708): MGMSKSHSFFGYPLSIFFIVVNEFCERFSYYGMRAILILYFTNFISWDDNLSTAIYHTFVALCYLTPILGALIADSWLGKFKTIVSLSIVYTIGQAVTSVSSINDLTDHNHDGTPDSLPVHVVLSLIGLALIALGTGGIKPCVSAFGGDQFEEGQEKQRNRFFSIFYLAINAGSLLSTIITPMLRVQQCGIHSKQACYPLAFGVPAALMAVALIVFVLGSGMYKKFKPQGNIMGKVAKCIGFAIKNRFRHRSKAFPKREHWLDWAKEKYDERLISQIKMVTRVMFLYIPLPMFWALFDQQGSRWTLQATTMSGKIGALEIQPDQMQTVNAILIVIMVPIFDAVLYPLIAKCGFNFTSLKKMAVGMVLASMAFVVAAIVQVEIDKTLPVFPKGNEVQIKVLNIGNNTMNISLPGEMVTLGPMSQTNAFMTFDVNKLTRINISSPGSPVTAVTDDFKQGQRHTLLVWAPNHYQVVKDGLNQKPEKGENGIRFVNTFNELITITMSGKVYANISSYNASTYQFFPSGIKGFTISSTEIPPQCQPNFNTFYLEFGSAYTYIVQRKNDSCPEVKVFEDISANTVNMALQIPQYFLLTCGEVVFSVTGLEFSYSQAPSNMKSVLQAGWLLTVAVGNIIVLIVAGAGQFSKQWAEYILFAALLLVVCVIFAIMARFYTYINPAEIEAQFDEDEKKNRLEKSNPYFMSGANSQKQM
In short: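 Human medulloblastoma DC5 cells stably expressing HPEPT1 took up radiolabelled Gly-Sar (125 nanomoles per well, 1 µCi/µmol) for 10 min at 37 °C alongside prodrugs at 10 µM–20 mM. Uptake was stopped with cold PBS washes and extracted radioactivity was counted. Data are percent of control uptake versus competitor concentration.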

[10] = in vitro; details: human, plasma
[11] = Caco-2 cell homogenates, n = 3
[12] = buffer
[13] = test system: KB cell
[14] = in vitro; details: human, Caco-2
[15] = test system: HeLa cells; details: control cultures not overexpressing hpept1, 50 micromolar, pH 6.0, 45 minutes
[16] = molecular target: T2, human dipeptide transporter, hPept1 (Homo sapiens, UniProt P46059)
T2 sequence (P46059 1-708): T1 sequence (P46059 1-708)

[17] = molecular target: T3, biphenyl hydrolase-like enzyme (BPHL) (Homo sapiens, UniProt Q86WA6); type: biochemical
T3 sequence (Q86WA6 38-291): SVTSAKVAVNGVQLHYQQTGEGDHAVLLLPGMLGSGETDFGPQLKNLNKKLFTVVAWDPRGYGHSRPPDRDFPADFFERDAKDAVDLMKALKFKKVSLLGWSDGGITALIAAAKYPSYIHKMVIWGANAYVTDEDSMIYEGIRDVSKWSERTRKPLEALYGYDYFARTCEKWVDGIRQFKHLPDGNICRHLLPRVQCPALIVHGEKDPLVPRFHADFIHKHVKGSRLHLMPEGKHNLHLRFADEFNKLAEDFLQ

[18] = Hydrolysis of gemcitabine prodrugs in phosphate buffer pH 7.4
[19] = molecular target: T1, HPEPT1; details: human, pH 6
[20] = physchem; details: buffer, pH 7.4; remark: listed apart in the source
[21] = test system: HeLa cells; details: 1 mM prodrug, pH 6.0, 45 minutes
[22] = test system: KB cell; assay: KB cell cytotoxicity; details: read-out: KB cell cytotoxicity (IC50)
[23] = test system: Caco-2 monolayers; assay: Caco-2 monolayer transport and stability; type: in vitro ADME
Experimental: as §1

[24] = Intestinal absorption after direct duodenal injection in anesthetized rats, plasma by LC/MS/MS
Experimental: The systemic plasma profiles of the prodrug, Ara A, and its main metabolite, Ara H are then monitored by removing plasma from a jugular vein cannula over a 4 hour period and assaying by LC/MS/MS assay.
Animals were dosed with Ara A at a level of 1.5 mg/rat via direct duodenal injection into anesthetized rats (n=2 per compound). Plasma samples were taken from the jugular vein at 0, 1, 2, and 4 hours from the jugular vein and were assayed for Ara A (▪), and Ara H (♦) by LC/MS/MS.
Animals were dosed with 5′-O-L isoleucyl Ara A prodrug at a level of 2.7 mg/rat via direct duodenal injection into anesthetized rats (n=3 per compound). Plasma samples were taken from the jugular vein at 0, 0.5, 1, 2, and 4 hours from the jugular vein and were assayed for prodrug (□), Ara A (▪), and Ara H (♦) by LC/MS/MS.
(§2) FIG. 6 is a graph showing mean plasma profiles of Ara A, Ara H, and 5′-O-D Isoleucyl Ara A after administration of 5′-O-D Isoleucyl Ara A into the duodenum of a rat. Animals were dosed with 5′-O-D Isoleucyl Ara A prodrug at a level of 2.7 mg/rat via direct duodenal injection into anesthetized rats (n=2). Plasma samples were taken from the jugular vein at 0, 0.5, 1, 2, and 4 hours from the jugular vein and were assayed for prodrug (□), Ara A (▪), and Ara H (♦) by LC/MS/MS.
as §2, with “7” for “6”, “5′-O-L Valyl” for “5′-O-D Isoleucyl”, “3” for “2.7”
as §2, with “FIG. 8” for “FIG. 6”, “5′-O-D Valyl” for “5′-O-D Isoleucyl”, “of 3.0” for “of 2.7”, “rats (n=3).” for “rats (n=2).”, “and ara” for “and Ara”
as §2, with “9” for “6”, “5′-O-Glycyl” for “5′-O-D Isoleucyl”, “3.0” for “2.7”

[25] = Orthopoxvirus vaccinia, HFF, 72 h

Nc1ccn(C[C@@H](CO)OCP(=O)(O)O)c(=O)n1 [Cidofovir, reference compound]
IC50 [1]: 30 µM | IC50 [2, 25]: 26 µM | IC50 [3]: > 100 µM

Nc1ncnc2c1ncn2[C@@H]1O[C@H](CO)[C@@H](O)[C@@H]1O [Ara A, Adenine 9-beta-D-arabinofuranoside, reference compound]
IC50 [1]: 6.5 µM | IC50 [2, 25]: 5 µM | solubility [4]: < 500 µg/mL | IC50 [3]: > 100 µM | Papp A→B at 2 h, 0.2 mM [5]: 1.42 ± 0.05 ×10⁻⁶ cm/s | deamination by adenosine deaminase (in words) [6]: rapidly hydrolyzed

CC(C)[C@H](N)C(=O)OCC(CO)OCn1cnc2c(=O)nc(N)[nH]c21 (some centres unmarked) [Valganciclovir]
half-life [7]: 0.545 ± 0.0117 h | half-life [8]: 16.5 ± 0.24 h | IC50 ([9]; inhibition of Gly-Sar uptake, DC5 cells overexpressing HPEPT1, 10 min, 37° C., read-out: DC5 IC50): 5230 µM | half-life [10]: 5.05 ± 0.3 h

O=c1[nH]cnc2c1ncn2[C@@H]1O[C@H](CO)[C@@H](O)[C@@H]1O [Ara-H, 9-(beta-D-arabinofuranosyl) hypoxanthine]
IC50 [1]: > 100 µM

Nc1ncnc2c1ncn2[C@@H]1O[C@H](COC(=O)[C@@H](N)Cc2ccccc2)[C@@H](O)[C@@H]1O [5′-O-L-phenylalanyl Ara A]
t1/2 Caco-2 [11]: 0.0583 ± 0.0167 h | IC50 ([2]; HFF cells, 3 days): 20 µM | t1/2 pH 7.4 [12]: 420.9 ± 40.1 min | IC50 [13]: > 100 µM

CC(C)[C@H](N)C(=O)OCCOCn1cnc2c(=O)[nH]c(N)nc21 [Valacyclovir]
half-life [14]: 0.545 ± 0.0117 h | Uptake Control [15]: 0.59 ± 0.06 nmole/mg/45 min | HeLa/hPEPT1 uptake ([16]; human, pH 6): 221.2 ± 8.1 | hPepT1/Control ([16]; human, pH 6): 19.0 | half-life [7]: 0.462 ± 0.01 h | % of Control (VACV) [17]: 100.0% | half-life [18]: 17.1 ± 0.19 h | IC50 [9]: 423 µM | Uptake (hPepT1) [19]: 2.51 ± 0.28 nmole/mg/45 min | hPepT1/Control [19]: 4.25 | half-life [10]: 5.2 ± 0.41 h | half-life [20]: 16.5 ± 0.24 h | HeLa control uptake [21]: 11.6 ± 0.5 nmol/mg/45 min

CC[C@H](C)[C@H](N)C(=O)OC[C@H]1O[C@@H](n2cnc3c(N)ncnc32)[C@@H](O)[C@@H]1O [5′-O-L-isoleucyl Ara A]
t1/2 Caco-2 [11]: 0.45 ± 0.0217 h | IC50 ([2]; HFF cells, 3 days): 4.5 µM | hPepT1/Control [16]: 26.9 | HeLa/hPEPT1 uptake ([16]; pH 6): 202.0 ± 4.8 | IC50 [22]: > 100 µM | Permeability ([23]; apical to basolateral, 0.2 mM drug, apical pH 6.0, n = 3): 5.66 ± 0.14 ×10^−6, cm/s | Stability (% remaining) Apical chamber (donor) ([23]; percent prodrug remaining in donor solution at 120 minutes): 89.6% | Stability (% remaining) Basolateral chamber (receiver) ([23]; percent prodrug remaining in receiver solution at 120 minutes): 77.5% | AUC0-4 hr of Prodrug ([24]; rat plasma, duodenal injection of the named prodrug): 658 ± 314 ng·h/mL | fold increase in circulating Ara A levels over dosing with Ara A ([24]; rat, duodenal injection): > 20 fold | percent of total drug measured in plasma found to be Ara-H ([24]; rat, in vivo): ~15% | percent of total drug measured in plasma present as Ara A ([24]; rat, in vivo): approximately 17% | percent of total drug measured in plasma present as prodrug ([24]; rat, in vivo): ~68%

Nc1ncnc2c1ncn2[C@@H]1O[C@H](COC(=O)[C@@H]2CCCN2)[C@@H](O)[C@@H]1O [5′-O-L-prolyl Ara A]
t1/2 Caco-2 [11]: 0.0217 ± 8.3e-05 h | IC50 ([2]; HFF cells, 3 days): 12 µM | hPepT1/Control [16]: 1.06 | HeLa/hPEPT1 uptake ([16]; pH 6): 40.8 ± 1.0 | t1/2 pH 7.4 [12]: 20.1 ± 1.0 min | IC50 [13]: 45 µM
